The numbers were not newly measured in patent US8642081B2, “Chewable, suckable and swallowable tablet containing a calcium-containing compound as an active substance” (Takeda Nycomed AS, priority 2004, dated 2014), which cites them from elsewhere.

For this series, the system named is treated patients. To be noted: annual injections of 150.000-300.000 IU.

In the case of vitamin D, the overall fracture rate result is reported as “significant reduction” and the “rate of hip fracture” value is reported as “not”.
